# Experimental data reported in patent US7582797B2, “Derivatives of 4,4′-dithiobis-(3-aminobutane-1-sulfonates) and compositions comprising the same” (Institute National de la Sante et de la Recherche Medicale …, priority 2003, dated 2009).
# Biological target: T1, recombinant aminopeptidase A (UniProt P16406)
# T1 sequence (P16406 1-945): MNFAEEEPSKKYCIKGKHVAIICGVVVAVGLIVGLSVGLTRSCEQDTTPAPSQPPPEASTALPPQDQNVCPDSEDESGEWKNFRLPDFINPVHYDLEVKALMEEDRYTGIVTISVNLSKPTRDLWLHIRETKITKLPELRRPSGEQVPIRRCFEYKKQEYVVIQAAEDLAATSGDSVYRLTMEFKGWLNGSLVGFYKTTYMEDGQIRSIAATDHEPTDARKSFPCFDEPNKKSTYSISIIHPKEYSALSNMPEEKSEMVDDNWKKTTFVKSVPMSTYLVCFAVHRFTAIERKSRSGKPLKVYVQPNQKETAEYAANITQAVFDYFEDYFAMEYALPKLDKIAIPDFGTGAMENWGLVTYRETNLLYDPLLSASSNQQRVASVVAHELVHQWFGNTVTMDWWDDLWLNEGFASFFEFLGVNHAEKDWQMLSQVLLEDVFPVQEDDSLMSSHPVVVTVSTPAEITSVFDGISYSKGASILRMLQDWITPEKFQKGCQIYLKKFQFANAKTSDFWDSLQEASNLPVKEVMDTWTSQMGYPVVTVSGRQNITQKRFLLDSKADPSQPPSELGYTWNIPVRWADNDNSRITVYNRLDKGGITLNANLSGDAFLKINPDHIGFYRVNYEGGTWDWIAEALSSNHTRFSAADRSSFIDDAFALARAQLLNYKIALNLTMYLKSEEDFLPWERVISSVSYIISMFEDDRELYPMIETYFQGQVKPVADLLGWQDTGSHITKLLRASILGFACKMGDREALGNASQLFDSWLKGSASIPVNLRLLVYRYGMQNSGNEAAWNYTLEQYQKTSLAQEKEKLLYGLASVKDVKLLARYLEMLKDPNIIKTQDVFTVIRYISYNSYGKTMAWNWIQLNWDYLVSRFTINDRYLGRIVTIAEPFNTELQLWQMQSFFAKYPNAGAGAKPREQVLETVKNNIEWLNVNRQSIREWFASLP
# Test: Determination of the inhibition constants with respect to APA (GluβNa hydrolysis, microplate assay)
# Assay type: biochemical
# Details: for Ki: recombinant APA, 200 μM GluβNa, pH 7.4 Tris-HCl, 4 mM CaCl2, 37° C.
# Experimental: The compounds 5 were tested, in vitro, on recombinant aminopeptidase A in order to determine their affinity for APA.
# The assaying of APA activity is based on the protocol of Goldberg, adapted to the microplate assay scale (Pro Bind® 3915) (Chauvel et al., J. Med. Chem., 1994, 37, 1339-1346).
# In vitro, in the presence of calcium ions, APA hydrolyzes α-L-glutamyl-β-naphthylamide (gluβNa) to glutamate and β-naphthylamine (βNa). A diazotization reaction in an acidic medium makes it possible to visualize the β-naphthylamine by formation of a violet-colored complex: spectrophotometric measurement then makes it possible to determine the amount of complex formed and, by reference to a standard curve produced with increasing concentrations of β-naphthylamine, to deduce therefrom the enzymatic activity of the sample.
# The GluβNa substrate and the β-naphthylamine (Bachem) are solubilized in dimethyl sulfoxide and 0.1N HCl, respectively, and conserved at −20° C. at a concentration of 10^−2M. The diazotization reaction is carried out in the presence of sodium nitrite (87 mM), of ammonium sulfamate (130 mM) and of N-(1-naphthyl)ethylenediamine dihydrochloride (23 mM).
# The reaction takes place at pH 7.4 in 50 mM Tris-HCl buffer, in the presence of calcium (4 mM CaCl2); the sample to be assayed is incubated at 37° C. in the presence of a substrate (200 μM GluβNa) and in the presence or absence of various concentrations of the inhibitor to be tested, in a final volume of 100 μl. The reaction is stopped by the addition of 10 μl of 3N HCl. A standard curve for β-naphthylamine in an acidic medium (addition of 10 μl of 0.1N HCl) is produced in parallel.
# The following are added to each well:
# 25 μl of sodium nitrite (mix, wait 5 min at ambient temperature),
# 50 μl of ammonium sulfamate (stir, wait 5 min at ambient temperature), then
# 25 μl of 23 mM N-(1-naphthyl)ethylenediamine dihydrochloride (mix, wait for the violet color to stabilize for approximately 30 min at 37° C.).
# The absorbance is subsequently measured at 540 nm.
# The compound EC 33 ((S)-3-amino-4-mercaptobutylsulfonic acid) described in application WO 99/36066), a monomer of the compound RB 150 (4,4′-dithiobis-3-aminobutane-1-sulfonic acid) described in application WO 2004/007441, was used as a reference compound.
Compound,Ki [nM],APA-inhibiting activity greater than that of the reference compound (EC 33) by a factor (relative to EC 33),inhibitory activity compared with the reference compound (EC 33) (relative to EC 33)
"N[C@H](CCS(=O)(=O)O)[C@@H](S)CCc1ccccc1 [Compound 5e1, (3R,4S)-3-Amino-4-mercapto-6-phenylhexane-1-sulfonic acid]",1920,–,–
"N[C@@H](CCS(=O)(=O)O)[C@@H](S)CCc1ccccc1 [Compound 5e2, (3S,4S)-3-Amino-4-mercapto-6-phenylhexane-1-sulfonic acid]",30,10,–
"N[C@@H](CCS(=O)(=O)O)[C@H](S)CCc1ccccc1 [Compound 5e3, (3S,4R)-3-Amino-4-mercapto-6-phenylhexane-1-sulfonic acid]",1040,–,–
"N[C@H](CCS(=O)(=O)O)[C@H](S)CCc1ccccc1 [Compound 5e4, (3R,4R)-3-Amino-4-mercapto-6-phenylhexane-1-sulfonic acid]",840,–,–
"N[C@H](CS)CCS(=O)(=O)O [EC 33, (S)-3-amino-4-mercaptobutylsulfonic acid, reference compound]",304,–,–

# Continued, in another order:
Ki [nM],APA-inhibiting activity greater than that of the reference compound (EC 33) by a factor (relative to EC 33),Compound,inhibitory activity compared with the reference compound (EC 33) (relative to EC 33)
> 100000,–,"CC(S)C(N)CCS(=O)(=O)O (stereo not shown) [Compound 5a, 3-Amino-4-mercaptopentane-1-sulfonic acid]",–
8000,–,"NC(CCS(=O)(=O)O)C(S)c1ccccc1 (stereo not shown) [Compound 5b, 3-Amino-4-mercapto-4-phenylbutane-1-sulfonic acid]",–
4000,–,"CC(C)CC(S)C(N)CCS(=O)(=O)O (stereo not shown) [Compound 5c, 3-Amino-4-mercapto-6-methylheptane-1-sulfonic acid]",–
380,–,"NC(CCS(=O)(=O)O)C(S)Cc1ccccc1 (stereo not shown) [Compound 5d, 3-Amino-4-mercapto-5-phenylpentane-1-sulfonic acid]",of the same order as or greater than that of the reference compound
80,–,"NC(CCS(=O)(=O)O)C(S)CCc1ccccc1 (stereo not shown) [Compound 5e, 3-Amino-4-mercapto-6-phenylhexane-1-sulfonic acid]",of the same order as or greater than that of the reference compound
92,–,"COc1ccc(CCC(S)C(N)CCS(=O)(=O)O)cc1 (stereo not shown) [Compound 5f, 3-Amino-4-mercapto-6-(4-methoxyphenyl)hexane-1-sulfonic acid]",of the same order as or greater than that of the reference compound
96,–,"COc1ccccc1CCC(S)C(N)CCS(=O)(=O)O (stereo not shown) [Compound 5g, 3-Amino-4-mercapto-6-(2-methoxyphenyl)hexane-1-sulfonic acid]",of the same order as or greater than that of the reference compound
110,–,"NC(CCS(=O)(=O)O)C(S)CCc1ccc(Br)cc1 (stereo not shown) [Compound 5h, 3-Amino-4-mercapto-6-(4-bromophenyl)hexane-1-sulfonic acid]",of the same order as or greater than that of the reference compound
